Results from patent US20250205204A1, “Transcription Factor Brn2 Inhibitory Compounds for Use as Therapeutics” (The University of British Columbia, priority 2021, published 2025).

Experiments:
BRN2 = target: T1, BRN2 (Homo sapiens, UniProt P20265); experiment: Drug Affinity Responsive Target Stability (DARTS) assay; settings: printed in BLI binding column; 42D^ENZR lysate
T1 sequence (P20265 1-443): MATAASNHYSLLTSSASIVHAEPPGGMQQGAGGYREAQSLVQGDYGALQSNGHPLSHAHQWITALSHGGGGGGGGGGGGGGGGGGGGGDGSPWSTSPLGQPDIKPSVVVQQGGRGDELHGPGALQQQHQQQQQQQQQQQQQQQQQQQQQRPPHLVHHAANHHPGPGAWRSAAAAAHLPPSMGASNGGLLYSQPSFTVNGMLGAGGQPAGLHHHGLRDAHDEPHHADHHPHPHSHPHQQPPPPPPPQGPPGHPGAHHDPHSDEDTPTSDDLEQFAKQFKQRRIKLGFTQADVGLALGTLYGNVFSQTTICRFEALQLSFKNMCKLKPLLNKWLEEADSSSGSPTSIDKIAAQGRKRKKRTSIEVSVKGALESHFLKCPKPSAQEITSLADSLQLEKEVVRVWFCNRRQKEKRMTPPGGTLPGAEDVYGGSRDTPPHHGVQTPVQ
Description: Step 2: Drug Affinity Responsive Target Stability (DARTS) Assay
This in cell assay provides a yes/no answer to direct interaction between BRN2 inhibitor and protein.
1) Prepare and place the following on ice: • Pronase • TNC 10× • 500 mM Tris-HCl (pH 8.0) • 500 mM NaCl, 100 mM CaCl2 • DMSO • Drug • 10 mL NP40+Protease inhibitor+Phosphatase inhibitor solution (can store in 4° C. and use for up to 4 weeks): • 2 mL NP40 5× • 8 mL ddH2O • 1 PhosphoSTOP™ pill • 200 uL protease inhibitor 50×
2) Remove the growth medium from the cell plate (42D^ENZR) and add 10 mL of cold PBS/vanadate.
3) Scrape the cells. Remove the PBS-cell solution and add in a falcon tube.
4) Name a new 1.5 ml Eppendorf tube and put on ice to pre-chill.
5) Centrifuge the cells at 1500 for 5 minutes at 4° C. Remove supernatant and re-suspend the cells in 600 uL NP40 lysis buffer by pipetting up and down. If the cell pellet is small use less volume, for example 300 μl)
6) Transfer the lysing cells into the pre-chilled Eppendorf tube. Incubate on ice for 20 minutes. If not continuing the DARTS on the same day, you can put the lysate in −30 and work on it later.
Preparing Cell Lysates for DARTS:
7) Centrifuge the tube at maximum speed for 25-30 minutes at 4° C.
8) Discard the pellet (either transfer the supernatant in a new tube or just take out the pellet). […]
20) The samples are ready for Western blot gel running. […]

42D^ENZR cells = experiment: Cell proliferation, BRN2 expressing 42D cells (crystal violet); assay type: cell-based; settings: 42D (express BRN2) versus 16D (no BRN2) cells, about 72 hours; result in words
Procedure, shortened: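 42D^ENZR (~7000/well) and 16D^CRPC (~5000/well) cells plated, compound added next day from 3× media stocks. After ~72 hours, cells fixed with glutaraldehyde, stained with crystal violet, dye eluted in Sorensen solution; absorbance read at 590 nm.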

[1] = Metabolic stability in liver microsomes (MLM); assay type: in vitro ADME, mice; settings: 0.25 mg/mL protein
Procedure, shortened: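 Mouse liver microsomes (0.25 mg/mL protein) in 50 mM potassium phosphate pH 7.4 at 37 °C with 1 µM compound, 1 mM NADPH, 0.1% DMSO; sampled 0–60 min in duplicate. LC-MS/MS parent depletion gives half-life; CL'int in mL/min/kg scaled with 45 mg protein/g liver, 90 g liver.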

FC(F)(F)c1ccc2c(c1)/C(=N\Nc1nc3ccccc3s1)CC2 [7-36]
binding observed using DARTS assay (BRN2): DARTS- good binding | Growth Specificity (42D^ENZR cells): Specific to 42D, but weak activity | half-life at 1 μM ([1]; mouse, liver microsomes, pH 7.4, 1 μM compound, read-out: T1/2 in mins (MLM)): > 1 h | Met Stab % (60 mins) MLM ([1]; percent remaining at 60 min, 1 μM compound, 1 mM NADPH): 78%
